Kd data for 7 molecules are collected here from ChEMBL document CHEMBL3991601, “The target landscape of clinical kinase drugs” (Science, 2017).

The source made the active and inactive calls. Cut-off read from the data, not from the text of the source, for most assays here: actives have a measured Kd and inactives only a lower limit. Where only a bound is given, the exact number is not on record here.

Experiment [1] concerns the target Mitotic checkpoint serine/threonine-protein kinase BUB1 (Homo sapiens, UniProt O43683).
In experiment [2] the target is T1, Scaffold protein ILK (Homo sapiens, UniProt Q13418).
T1 sequence (Q13418 whole entry): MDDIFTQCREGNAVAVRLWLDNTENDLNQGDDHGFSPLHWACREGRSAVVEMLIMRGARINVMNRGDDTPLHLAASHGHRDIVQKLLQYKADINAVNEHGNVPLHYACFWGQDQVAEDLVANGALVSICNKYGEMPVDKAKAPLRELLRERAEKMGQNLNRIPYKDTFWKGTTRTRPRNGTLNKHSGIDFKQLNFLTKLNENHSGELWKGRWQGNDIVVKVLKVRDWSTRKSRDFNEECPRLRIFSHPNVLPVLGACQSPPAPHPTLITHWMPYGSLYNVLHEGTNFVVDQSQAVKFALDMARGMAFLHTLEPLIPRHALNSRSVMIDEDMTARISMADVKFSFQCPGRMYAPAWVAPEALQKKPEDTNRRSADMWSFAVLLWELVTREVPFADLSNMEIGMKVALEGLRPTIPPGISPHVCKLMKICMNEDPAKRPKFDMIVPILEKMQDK

Experiment [3] has as its target Mitogen-activated protein kinase kinase kinase kinase 4 (Homo sapiens, UniProt O95819).
The target in experiment [4] is S-adenosylmethionine synthase isoform type-2 (Homo sapiens, UniProt P31153).
Experiment [5] has as its target Maternal embryonic leucine zipper kinase (Homo sapiens, UniProt Q14680).
Experiment [6] deals with Hepatocyte growth factor receptor (Homo sapiens, UniProt P08581).
The target in experiment [7] is T2, Dynamin-like GTPase OPA1, mitochondrial (Homo sapiens, UniProt O60313).
T2 sequence (O60313 whole entry): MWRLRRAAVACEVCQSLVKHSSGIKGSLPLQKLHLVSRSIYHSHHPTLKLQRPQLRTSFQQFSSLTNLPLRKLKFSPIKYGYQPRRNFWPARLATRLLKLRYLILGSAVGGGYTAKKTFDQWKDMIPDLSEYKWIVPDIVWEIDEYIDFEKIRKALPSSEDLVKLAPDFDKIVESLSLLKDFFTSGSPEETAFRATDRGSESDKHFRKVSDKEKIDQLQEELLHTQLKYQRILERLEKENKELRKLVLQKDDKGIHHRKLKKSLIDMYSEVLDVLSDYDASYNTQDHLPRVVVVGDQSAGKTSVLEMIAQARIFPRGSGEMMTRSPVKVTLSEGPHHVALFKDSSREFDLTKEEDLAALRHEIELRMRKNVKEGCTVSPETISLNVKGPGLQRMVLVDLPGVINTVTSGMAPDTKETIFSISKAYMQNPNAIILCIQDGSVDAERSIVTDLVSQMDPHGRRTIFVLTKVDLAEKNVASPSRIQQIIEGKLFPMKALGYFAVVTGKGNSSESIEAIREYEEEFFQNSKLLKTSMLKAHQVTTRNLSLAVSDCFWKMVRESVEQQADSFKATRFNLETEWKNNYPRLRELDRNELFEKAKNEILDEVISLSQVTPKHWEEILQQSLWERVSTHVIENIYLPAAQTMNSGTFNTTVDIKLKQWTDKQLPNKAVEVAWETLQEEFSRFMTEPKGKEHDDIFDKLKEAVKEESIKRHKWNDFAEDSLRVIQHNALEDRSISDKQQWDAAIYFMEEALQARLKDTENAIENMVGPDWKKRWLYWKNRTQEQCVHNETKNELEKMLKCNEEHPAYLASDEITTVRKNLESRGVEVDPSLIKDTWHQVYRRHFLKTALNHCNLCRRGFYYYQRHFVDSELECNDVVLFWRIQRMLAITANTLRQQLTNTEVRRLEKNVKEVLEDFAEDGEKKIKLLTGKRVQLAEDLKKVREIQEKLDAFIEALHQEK

In experiment [8] the target is 5'-AMP-activated protein kinase catalytic subunit alpha-1 (Homo sapiens, UniProt Q13131).
Experiment [9] concerns the target Rho-associated protein kinase 1 (Homo sapiens, UniProt Q13464).
The target of experiment [10] is Ribosomal protein S6 kinase alpha-6 (Homo sapiens, UniProt Q9UK32).
For experiment [11], the target named is STE20-like serine/threonine-protein kinase (Homo sapiens, UniProt Q9H2G2).
In experiment [12] the target is Proto-oncogene tyrosine-protein kinase Src (Homo sapiens, UniProt P12931).
The target in experiment [13] is Serine/threonine-protein kinase 26 (Homo sapiens, UniProt Q9P289).
In experiment [14] the target is T3, Non-receptor tyrosine-protein kinase TNK1 (Homo sapiens, UniProt Q13470).
T3 sequence (Q13470 whole entry): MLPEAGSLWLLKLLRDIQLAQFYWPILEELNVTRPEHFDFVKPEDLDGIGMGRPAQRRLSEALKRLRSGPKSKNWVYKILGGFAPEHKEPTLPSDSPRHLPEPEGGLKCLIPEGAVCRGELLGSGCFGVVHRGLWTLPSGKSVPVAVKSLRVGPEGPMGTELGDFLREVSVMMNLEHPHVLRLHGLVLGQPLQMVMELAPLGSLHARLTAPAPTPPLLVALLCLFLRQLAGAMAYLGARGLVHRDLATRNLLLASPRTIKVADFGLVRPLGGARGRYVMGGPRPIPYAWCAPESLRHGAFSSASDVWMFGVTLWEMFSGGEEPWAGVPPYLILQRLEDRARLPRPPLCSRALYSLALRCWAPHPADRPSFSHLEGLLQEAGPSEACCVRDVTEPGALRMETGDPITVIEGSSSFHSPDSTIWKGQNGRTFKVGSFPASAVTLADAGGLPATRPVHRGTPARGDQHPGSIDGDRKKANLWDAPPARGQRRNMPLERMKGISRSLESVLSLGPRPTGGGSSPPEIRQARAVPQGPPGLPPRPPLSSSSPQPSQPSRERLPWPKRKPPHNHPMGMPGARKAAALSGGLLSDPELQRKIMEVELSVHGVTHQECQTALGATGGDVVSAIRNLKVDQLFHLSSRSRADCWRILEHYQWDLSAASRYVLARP

The target in experiment [15] is Non-receptor tyrosine-protein kinase TYK2 (Homo sapiens, UniProt P29597).
The target of experiment [16] is Adenosine kinase (Homo sapiens, UniProt P55263).
Experiment [17] concerns the target Cyclin-dependent kinase 17 (Homo sapiens, UniProt Q00537).
In experiment [18] the target is Dual specificity protein kinase CLK1 (Homo sapiens, UniProt P49759).
Note: in the data inactive means no Kd found up to 30 µM.

Chain of Non-receptor tyrosine-protein kinase TYK2 (P29597 whole entry): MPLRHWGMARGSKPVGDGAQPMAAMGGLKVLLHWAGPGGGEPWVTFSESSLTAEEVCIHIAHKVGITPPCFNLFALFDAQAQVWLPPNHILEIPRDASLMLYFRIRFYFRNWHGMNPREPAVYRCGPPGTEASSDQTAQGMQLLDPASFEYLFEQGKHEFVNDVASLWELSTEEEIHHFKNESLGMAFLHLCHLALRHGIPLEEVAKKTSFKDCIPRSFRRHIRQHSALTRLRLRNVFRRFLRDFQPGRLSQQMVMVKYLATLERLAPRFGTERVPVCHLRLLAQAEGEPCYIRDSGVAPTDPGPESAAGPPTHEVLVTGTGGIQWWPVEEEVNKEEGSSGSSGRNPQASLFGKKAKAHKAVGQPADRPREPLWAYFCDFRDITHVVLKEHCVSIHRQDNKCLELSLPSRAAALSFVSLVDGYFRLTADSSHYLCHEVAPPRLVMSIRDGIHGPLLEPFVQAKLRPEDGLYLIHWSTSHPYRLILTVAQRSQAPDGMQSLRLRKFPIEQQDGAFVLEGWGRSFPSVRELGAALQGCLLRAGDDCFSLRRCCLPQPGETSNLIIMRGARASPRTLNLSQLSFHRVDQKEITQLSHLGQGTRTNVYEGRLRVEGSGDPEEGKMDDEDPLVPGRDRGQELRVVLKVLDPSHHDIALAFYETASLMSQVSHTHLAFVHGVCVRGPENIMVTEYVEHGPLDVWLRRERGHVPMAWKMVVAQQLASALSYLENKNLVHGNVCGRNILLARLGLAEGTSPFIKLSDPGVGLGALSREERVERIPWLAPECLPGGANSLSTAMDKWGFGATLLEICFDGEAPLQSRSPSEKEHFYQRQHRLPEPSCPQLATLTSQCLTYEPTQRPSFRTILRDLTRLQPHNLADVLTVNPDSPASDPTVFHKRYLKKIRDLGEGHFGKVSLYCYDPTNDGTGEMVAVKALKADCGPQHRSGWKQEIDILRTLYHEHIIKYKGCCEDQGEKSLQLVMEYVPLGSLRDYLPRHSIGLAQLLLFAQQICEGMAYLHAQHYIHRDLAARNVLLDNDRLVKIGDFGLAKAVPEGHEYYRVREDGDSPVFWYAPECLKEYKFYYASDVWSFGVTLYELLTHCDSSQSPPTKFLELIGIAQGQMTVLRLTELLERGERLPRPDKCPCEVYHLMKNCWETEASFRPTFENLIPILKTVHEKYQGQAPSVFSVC
Chain of Cyclin-dependent kinase 17 (Q00537 whole entry): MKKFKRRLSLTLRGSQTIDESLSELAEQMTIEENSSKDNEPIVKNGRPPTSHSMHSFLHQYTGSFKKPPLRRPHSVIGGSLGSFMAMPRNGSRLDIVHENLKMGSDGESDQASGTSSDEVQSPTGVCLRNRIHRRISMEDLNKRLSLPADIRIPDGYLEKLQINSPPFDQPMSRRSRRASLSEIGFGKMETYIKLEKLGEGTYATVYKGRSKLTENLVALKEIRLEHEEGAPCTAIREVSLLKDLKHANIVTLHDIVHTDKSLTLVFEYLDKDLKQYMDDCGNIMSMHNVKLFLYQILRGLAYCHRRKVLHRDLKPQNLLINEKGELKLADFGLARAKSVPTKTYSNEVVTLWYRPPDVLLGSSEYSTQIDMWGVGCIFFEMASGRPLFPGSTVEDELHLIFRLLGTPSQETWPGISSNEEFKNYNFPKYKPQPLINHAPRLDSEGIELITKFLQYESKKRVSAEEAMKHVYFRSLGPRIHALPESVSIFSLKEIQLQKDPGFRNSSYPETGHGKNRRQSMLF
Chain of S-adenosylmethionine synthase isoform type-2 (P31153 whole entry, canonical isoform): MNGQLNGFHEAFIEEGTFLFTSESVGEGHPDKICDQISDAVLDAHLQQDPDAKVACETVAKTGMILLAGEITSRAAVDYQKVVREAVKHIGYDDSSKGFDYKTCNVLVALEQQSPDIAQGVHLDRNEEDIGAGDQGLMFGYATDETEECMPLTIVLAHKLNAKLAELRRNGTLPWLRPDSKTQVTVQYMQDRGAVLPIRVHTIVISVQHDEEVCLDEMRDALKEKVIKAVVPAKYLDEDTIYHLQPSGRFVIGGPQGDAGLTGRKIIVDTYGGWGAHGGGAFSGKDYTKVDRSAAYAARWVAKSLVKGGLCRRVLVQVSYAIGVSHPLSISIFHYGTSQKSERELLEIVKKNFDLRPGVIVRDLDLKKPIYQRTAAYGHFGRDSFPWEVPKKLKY
Chain of Serine/threonine-protein kinase 26 (Q9P289 whole entry): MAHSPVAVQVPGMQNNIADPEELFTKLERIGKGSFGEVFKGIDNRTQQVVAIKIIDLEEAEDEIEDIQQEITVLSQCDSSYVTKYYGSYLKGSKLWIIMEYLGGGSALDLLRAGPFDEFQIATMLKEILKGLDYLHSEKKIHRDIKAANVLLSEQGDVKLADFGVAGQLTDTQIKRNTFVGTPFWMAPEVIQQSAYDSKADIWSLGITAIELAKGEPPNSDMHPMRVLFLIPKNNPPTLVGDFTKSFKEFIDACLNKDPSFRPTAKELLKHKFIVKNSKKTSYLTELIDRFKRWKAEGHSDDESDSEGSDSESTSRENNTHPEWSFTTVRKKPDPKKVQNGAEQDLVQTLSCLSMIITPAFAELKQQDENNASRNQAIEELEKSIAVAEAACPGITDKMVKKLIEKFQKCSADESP
Chain of Mitotic checkpoint serine/threonine-protein kinase BUB1 (O43683 whole entry): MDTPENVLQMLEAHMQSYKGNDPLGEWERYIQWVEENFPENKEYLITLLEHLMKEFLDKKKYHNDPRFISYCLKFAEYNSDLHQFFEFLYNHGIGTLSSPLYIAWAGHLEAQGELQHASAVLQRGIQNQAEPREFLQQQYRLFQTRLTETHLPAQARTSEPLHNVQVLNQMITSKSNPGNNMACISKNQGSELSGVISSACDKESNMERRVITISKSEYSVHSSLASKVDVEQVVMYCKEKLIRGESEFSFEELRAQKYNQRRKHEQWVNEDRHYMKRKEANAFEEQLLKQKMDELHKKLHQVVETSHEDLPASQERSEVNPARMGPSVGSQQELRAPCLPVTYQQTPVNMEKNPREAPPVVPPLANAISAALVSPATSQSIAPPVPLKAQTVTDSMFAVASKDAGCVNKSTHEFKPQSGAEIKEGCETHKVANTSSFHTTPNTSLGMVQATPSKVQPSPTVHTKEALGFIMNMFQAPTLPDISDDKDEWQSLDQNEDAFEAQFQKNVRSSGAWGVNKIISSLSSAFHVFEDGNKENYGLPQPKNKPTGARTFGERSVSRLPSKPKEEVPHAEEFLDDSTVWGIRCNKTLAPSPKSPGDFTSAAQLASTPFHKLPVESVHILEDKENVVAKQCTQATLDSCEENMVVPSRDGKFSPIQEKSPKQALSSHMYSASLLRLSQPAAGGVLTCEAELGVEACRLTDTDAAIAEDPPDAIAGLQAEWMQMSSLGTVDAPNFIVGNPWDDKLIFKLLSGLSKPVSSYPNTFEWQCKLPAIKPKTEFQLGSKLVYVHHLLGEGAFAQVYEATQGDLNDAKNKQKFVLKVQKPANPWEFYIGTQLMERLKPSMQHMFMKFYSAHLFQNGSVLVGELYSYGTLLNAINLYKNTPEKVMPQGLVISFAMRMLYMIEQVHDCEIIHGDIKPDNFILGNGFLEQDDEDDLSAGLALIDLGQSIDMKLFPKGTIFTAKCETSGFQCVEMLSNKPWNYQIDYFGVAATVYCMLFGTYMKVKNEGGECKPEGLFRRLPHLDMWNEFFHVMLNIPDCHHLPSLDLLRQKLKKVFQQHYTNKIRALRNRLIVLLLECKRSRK
Chain of 5'-AMP-activated protein kinase catalytic subunit alpha-1 (Q13131 whole entry): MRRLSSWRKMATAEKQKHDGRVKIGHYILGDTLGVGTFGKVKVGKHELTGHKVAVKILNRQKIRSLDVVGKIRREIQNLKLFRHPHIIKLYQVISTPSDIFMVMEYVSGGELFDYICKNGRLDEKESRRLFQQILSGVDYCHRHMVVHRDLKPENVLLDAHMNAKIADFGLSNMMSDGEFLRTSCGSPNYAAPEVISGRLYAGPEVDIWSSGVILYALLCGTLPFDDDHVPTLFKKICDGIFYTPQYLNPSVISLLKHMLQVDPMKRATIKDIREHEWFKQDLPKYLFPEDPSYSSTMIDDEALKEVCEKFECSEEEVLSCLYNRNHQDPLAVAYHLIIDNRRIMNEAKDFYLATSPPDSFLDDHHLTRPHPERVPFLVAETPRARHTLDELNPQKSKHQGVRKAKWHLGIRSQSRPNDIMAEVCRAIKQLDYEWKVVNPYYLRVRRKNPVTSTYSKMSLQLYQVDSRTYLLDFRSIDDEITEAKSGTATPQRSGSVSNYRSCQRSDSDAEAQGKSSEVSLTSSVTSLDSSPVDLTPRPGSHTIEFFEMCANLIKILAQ
Chain of Ribosomal protein S6 kinase alpha-6 (Q9UK32 whole entry): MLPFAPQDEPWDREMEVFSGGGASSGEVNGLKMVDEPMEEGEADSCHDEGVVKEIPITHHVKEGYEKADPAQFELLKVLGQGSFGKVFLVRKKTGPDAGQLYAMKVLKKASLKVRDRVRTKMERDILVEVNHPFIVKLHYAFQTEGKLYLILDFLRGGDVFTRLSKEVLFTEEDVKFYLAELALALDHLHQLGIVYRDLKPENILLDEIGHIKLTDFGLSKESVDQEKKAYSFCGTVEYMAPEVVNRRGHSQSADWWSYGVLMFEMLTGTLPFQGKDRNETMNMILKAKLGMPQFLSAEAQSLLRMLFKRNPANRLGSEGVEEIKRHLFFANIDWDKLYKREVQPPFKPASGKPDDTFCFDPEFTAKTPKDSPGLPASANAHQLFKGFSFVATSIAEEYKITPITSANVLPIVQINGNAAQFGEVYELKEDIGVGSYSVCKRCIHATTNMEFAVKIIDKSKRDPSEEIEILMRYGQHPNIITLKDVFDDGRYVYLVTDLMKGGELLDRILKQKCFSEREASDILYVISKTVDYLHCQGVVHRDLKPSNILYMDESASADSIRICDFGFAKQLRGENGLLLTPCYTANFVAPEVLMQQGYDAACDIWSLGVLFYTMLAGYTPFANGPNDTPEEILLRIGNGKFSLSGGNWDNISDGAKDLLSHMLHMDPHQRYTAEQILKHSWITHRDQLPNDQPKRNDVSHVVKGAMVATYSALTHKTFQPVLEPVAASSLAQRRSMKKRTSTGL

As to `C[C@@H](Oc1cc(C(=O)Nc2ccc(C(=O)N3CCN(C)CC3)cc2)nnc1N)c1c(Cl)ccc(F)c1Cl`, the Kd in [1] was > 30 µM (inactive); in [2] it was > 30 µM (inactive); in experiment [3], > 30 µM (inactive); in [4] it was > 30 µM (inactive); in experiment [5], > 30 µM (inactive); in experiment [6] it was 0.032 µM. The Kd in experiment [7], in [8], in experiment [9], in experiment [10], in experiment [11] and in [12] was > 30 µM (inactive) each time. In addition, the Kd in [13], in experiment [14] and in experiment [15] was > 30 µM (inactive) each time.
For the molecule `Nc1ncnc2c1c(-c1cccc(OCc3ccccc3)c1)cn2[C@H]1C[C@@H](CN2CCC2)C1` [AEW-541], the Kd in [16], in experiment [1], in experiment [17], in [2], in experiment [3] and in experiment [5] was > 30 µM (inactive) in each case. For the same molecule, the Kd in [6], in experiment [7], in [8], in experiment [9], in experiment [10] and in experiment [11] was > 30 µM (inactive) each time. The Kd in experiment [12] was 3.55 µM (active); in experiment [13], > 30 µM (inactive); in experiment [14] it was > 30 µM (inactive); in experiment [15] it was > 30 µM (inactive).
`COc1cc([C@@H]2c3cc4c(cc3[C@H](O)[C@H]3COC(=O)[C@@H]23)OCO4)cc(OC)c1OC` [AXL-1717]: the Kd in [16], in experiment [1], in experiment [17], in [2], in experiment [3] and in [4] was > 30 µM (inactive) throughout. The Kd in experiment [5], in experiment [6], in [7], in experiment [8], in experiment [9] and in experiment [10] was > 30 µM (inactive) each time. In addition, the Kd in experiment [11], in [12], in experiment [13], in [14] and in [15] was > 30 µM (inactive) each time.
For `Cc1nc2cc(-n3ncc(C(=O)c4cc5ccccc5[nH]4)c3N)ccc2[nH]1` [FGFR INHIBITOR DEBIO 1347], the Kd in experiment [1], in experiment [17], in experiment [2], in [3], in experiment [4] and in [5] was > 30 µM (inactive) in each case. Moreover, the Kd in experiment [6], in [7], in [8], in experiment [9], in [10] and in experiment [11] was > 30 µM (inactive) each time. The Kd in [12], in [13], in experiment [14] and in [15] was > 30 µM (inactive) throughout.
Consider `O=C(Nc1nc2cccc(-c3ccc(CN4CCS(=O)(=O)CC4)cc3)n2n1)C1CC1` [FILGOTINIB], for which the Kd in experiment [16], in [1], in [17], in experiment [2], in experiment [3] and in experiment [4] was > 30 µM (inactive) in each case. For the same molecule, the Kd in experiment [5], in [6], in [7], in [8], in experiment [9] and in [10] was > 30 µM (inactive) throughout. Also, the Kd was 9.27 µM (active) in experiment [11], > 30 µM (inactive) in experiment [12], > 30 µM (inactive) in [13] and > 30 µM (inactive) in experiment [14].
`Cn1cc(-c2cnc3ccc4ccc(CS(=O)(=O)NCc5ccccn5)cc4c(=O)c3c2)cn1` [MK-8033]: the Kd in experiment [16], in experiment [1], in experiment [17], in [18], in experiment [2] and in experiment [3] was > 30 µM (inactive) in each case. Further, the Kd in experiment [4], in experiment [5], in experiment [7], in experiment [8], in experiment [9] and in experiment [10] was > 30 µM (inactive) in each case. Further, the Kd in [11], in experiment [12], in experiment [13], in [14] and in [15] was > 30 µM (inactive) in each case.
As to `CCOc1cc2ncc(C#N)c(Nc3ccc(F)c(Cl)c3)c2cc1NC(=O)/C=C/CN(C)C` [PELITINIB], the Kd in experiment [16], in experiment [1], in experiment [17], in experiment [18], in experiment [2] and in experiment [3] was > 30 µM (inactive) each time. In addition, the Kd in [4], in experiment [5], in [7], in [8], in [9] and in [10] was > 30 µM (inactive) throughout. For the same molecule, the Kd in experiment [11], in [12], in [13], in experiment [14] and in experiment [15] was > 30 µM (inactive) throughout.
